From patent US8669247B2, “2,5-disubstituted arylsulfonamide CCR3 antagonists” (Axikin Pharmaceuticals, Inc., priority 2009, dated 2014)

Target: T1, CCR3 receptor (UniProt P51677)
T1 sequence (P51677 1-355): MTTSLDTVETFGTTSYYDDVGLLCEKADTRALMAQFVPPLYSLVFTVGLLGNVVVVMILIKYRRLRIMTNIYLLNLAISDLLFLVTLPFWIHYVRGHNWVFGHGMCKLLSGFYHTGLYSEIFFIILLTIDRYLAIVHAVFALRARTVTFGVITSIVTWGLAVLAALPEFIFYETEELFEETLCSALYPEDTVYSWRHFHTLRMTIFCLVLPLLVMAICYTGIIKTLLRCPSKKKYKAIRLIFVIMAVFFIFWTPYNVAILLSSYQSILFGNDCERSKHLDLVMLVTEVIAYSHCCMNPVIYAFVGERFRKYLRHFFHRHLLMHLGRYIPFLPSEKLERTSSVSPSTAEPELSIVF
Experiment: CCR3 Receptor Binding Assay ([125I]-labeled human eotaxin/CCL11 displacement on cells)
Procedure: Cells were washed once with PBS and resuspended in a binding buffer (25 mM HEPES pH 7.6, 5 mM MgCl2, 1 mM CaCl2, 0.5% BSA, 0.1% NaN3), […] of cell suspension (2×10^5 cells/well) and 0.1 nM [^125I]-labeled human eotaxin/CCL11 (2000 Ci/mmol specific activity) were mixed in a 96-well U-bottom polypropylene plate, and incubated for 60 min at room temperature for the binding reaction. The cell suspension was then transferred to a filtration plate (#MAFB, Millipore), and washed 3 times with the binding buffer containing 0.5 M NaCl, scintillant added, and the radioactivity was counted on a TopCount (Packard). For the determination of non-specific binding, the cell suspension and [^125I]-labeled human eotaxin/CCL11 were incubated in the presence of 500 nM of unlabeled human eotaxin/CCL11. See, lino et al., “Molecular cloning and functional characterization of cynomolgus monkey (Macaca fascicularis) CC chemokine receptor, CCR3,” Cytokine 2002, 19, 276-286.

[1] = Free (free form of the compound)
[2] = HCl: hydrochloric acid salt of the corresponding compound

Ki [1] [nM] | Ki [2] [nM] | also measured | SMILES
10 to 25 | – | – | CCCC(C)N1CCN(S(=O)(=O)c2cc(C#N)ccc2Oc2cc(Cl)ccc2Cl)CC1 (stereo not shown) [Compound 90, 4-(2,5-Dichlorophenoxy)-3-(4-(pentan-2-yl)piperazin-1-ylsulfonyl)-benzonitrile]
≤ 10 | – | – | Cc1ccc(C)c(Oc2ccc([N+](=O)[O-])cc2S(=O)(=O)N2CCN(C3CCCCC3)CC2)c1 [Compound 121, 1-Cyclohexyl-4-(2-(2,5-dimethylphenoxy)-5-nitrophenylsulfonyl)piperazine]
> 5 | – | – | Cc1ccc(C)c(Sc2ccc(C#N)cc2S(=O)(=O)N2CCOCC2)c1 [Compound 71, 4-(2,5-Dimethylphenylthio)-3-(morpholinosulfonyl)benzonitrile]
> 5 | – | – | CN1CCN(S(=O)(=O)c2cc([N+](=O)[O-])ccc2Sc2cc(Cl)ccc2Cl)CC1 [Compound 133, 1-(2-(2,5-Dichlorophenylthio)-5-nitrophenylsulfonyl)-4-methylpiperazine]
10 to 25 | – | – | CCC(CC)N1CCN(S(=O)(=O)c2cc(C#N)ccc2Oc2cc(Cl)ccc2Cl)CC1 [Compound 89, 4-(2,5-Dichlorophenoxy)-3-(4-(pentan-3-yl)piperazin-1-ylsulfonyl)-benzonitrile]
10 to 25 | – | – | O=C1CN(S(=O)(=O)c2cc([N+](=O)[O-])ccc2Oc2cc(Cl)ccc2Cl)CCN1 [Compound 126, 4-(2-(2,5-Dichlorophenoxy)-5-nitrophenylsulfonyl)piperazin-2-one]
25 to 100 | – | – | CC1CN(S(=O)(=O)c2cc(C#N)ccc2Oc2cc(F)ccc2F)CC(C)N1 (stereo not shown) [Compound 53, 4-(2,5-Difluorophenoxy)-3-(3,5-dimethylpiperazin-1-ylsulfonyl)benzonitrile]
25 to 100 | 25 to 100 | – | CCC(CC)N1CCN(S(=O)(=O)c2cc(C#N)ccc2Sc2cc(C)ccc2C)CC1 [Compound 68, 4-(2,5-Dimethylphenylthio)-3-(4-(pentan-3-yl)piperazin-1-ylsulfonyl)benzonitrile]
– | > 5 | – | CN1CCCN(S(=O)(=O)c2cc(C#N)ccc2Oc2cc(F)ccc2F)CC1 [Compound 57, 4-(2,5-Difluorophenoxy)-3-(4-methyl-1,4-diazepan-1-ylsulfonyl)benzonitrile]
> 5 | – | – | Cc1ccc(C)c(Oc2ccc([N+](=O)[O-])cc2S(=O)(=O)N2CC(C)NC(C)C2)c1 (stereo not shown) [Compound 106, 1-(2-(2,5-Dimethylphenoxy)-5-nitrophenylsulfonyl)-3,5-dimethylpiperazine]
25 to 100 | ≤ 10 | – | CN(C)C1CCN(S(=O)(=O)c2cc(C#N)ccc2Sc2cc(Cl)ccc2Cl)CC1 [Compound 83, 4-(2,5-Dichlorophenylthio)-3-(4-(dimethylamino)piperidin-1-ylsulfonyl)benzonitrile]
25 to 100 | – | – | CN1CCCN(S(=O)(=O)c2cc(C#N)ccc2Oc2cc(Cl)ccc2Cl)CC1 [Compound 92, 4-(2,5-Dichlorophenoxy)-3-(4-methyl-1,4-diazepan-1-ylsulfonyl)benzonitrile]
≤ 10 | ≤ 10 | – | CC1CN(S(=O)(=O)c2cc(C#N)ccc2Sc2cc(Cl)ccc2Cl)CC(C)N1 (stereo not shown) [Compound 79, 4-(2,5-Dichlorophenylthio)-3-(3,5-dimethylpiperazin-1-ylsulfonyl)benzonitrile]
> 5 | 25 to 100 | – | Cc1ccc(C)c(Sc2ccc(C#N)cc2S(=O)(=O)N2CCC(N(C)C)CC2)c1 [Compound 72, 3-(4-(Dimethylamino)piperidin-1-ylsulfonyl)-4-(2,5-dimethylphenylthio)-benzonitrile]
> 5 | > 5 | – | N#Cc1ccc(Oc2cc(F)ccc2F)c(S(=O)(=O)NCCN2CCCC2)c1 [Compound 63, 5-Cyano-2-(2,5-difluorophenoxy)-N-(2-(pyrrolidin-1-yl)ethyl)benzenesulfonamide]
≤ 10 | – | – | CC(C)N1CCN(S(=O)(=O)c2cc([N+](=O)[O-])ccc2Oc2cc(Cl)ccc2Cl)CC1 [Compound 107, 1-(2-(2,5-Dichlorophenoxy)-5-nitrophenylsulfonyl)-4-isopropylpiperazine]
100 to 500 | – | – | Cc1ccc(C)c(Sc2ccc(C#N)cc2S(=O)(=O)N2CCCN(C)CC2)c1 [Compound 70, 4-(2,5-Dimethylphenylthio)-3-(4-methyl-1,4-diazepan-1-ylsulfonyl)benzonitrile]
25 to 100 | 25 to 100 | – | CCC(CC)N1CCN(S(=O)(=O)c2cc(C#N)ccc2Sc2cc(Cl)ccc2Cl)CC1 [Compound 78, 4-(2,5-Dichlorophenylthio)-3-(4-(pentan-3-yl)piperazin-1-ylsulfonyl)-benzonitrile]

Ki [1] [nM] | Ki [2] [nM] | also measured | SMILES
100 to 500 | 25 to 100 | – | CC(C)N1CCN(S(=O)(=O)c2cc(C#N)ccc2Oc2cc(F)ccc2F)CC1 [Compound 54, 4-(2,5-Difluorophenoxy)-3-(4-isopropylpiperazin-1-ylsulfonyl)benzonitrile]
> 5 | – | – | CCC(CC)N1CCN(S(=O)(=O)c2cc(C#N)ccc2Oc2cc(F)ccc2F)CC1 [Compound 55, 4-(2,5-Difluorophenoxy)-3-(4-(pentan-3-yl)piperazin-1-ylsulfonyl)benzonitrile]
– | 25 to 100 | – | CC(C)N1CCCN(S(=O)(=O)c2cc(C#N)ccc2Oc2cc(Cl)ccc2Cl)CC1 [Compound 98, 4-(2,5-Dichlorophenoxy)-3-(4-isopropyl-1,4-diazepan-1-ylsulfonyl)benzonitrile]
≤ 10 | ≤ 10 | Ki ((CO2H)2 salt): 25 to 100 nM; Ki (EtSO3H salt): ≤ 10 nM; Ki (H2SO4 salt): ≤ 10 nM; Ki (HNO3 salt): 25 to 100 nM; Ki (MeSO3H salt): ≤ 10 nM | N#Cc1ccc(Sc2cc(Cl)ccc2Cl)c(S(=O)(=O)N2CCN(C3CCCC3)CC2)c1 [Compound 80, 3-(4-Cyclopentylpiperazin-1-ylsulfonyl)-4-(2,5-dichlorophenylthio)-benzonitrile]
> 5 | – | – | CCCCc1nc(Cl)c2n1C(=O)N(C1CCN(S(=O)(=O)c3cc(C#N)ccc3Oc3cc(Cl)ccc3Cl)CC1)C2 [Compound 93, 3-(4-(5-Butyl-7-chloro-3-oxo-1H-imidazo[1,5-c]imidazol-2(3H)-yl)piperidin-1-ylsulfonyl)-4-(2,5-dichlorophenoxy)benzonitrile]
≤ 10 | ≤ 10 | – | CC(C)N1CCN(S(=O)(=O)c2cc(C#N)ccc2Sc2cc(Cl)ccc2Cl)CC1 [Compound 77, 4-(2,5-Dichlorophenylthio)-3-(4-isopropylpiperazin-1-ylsulfonyl)benzonitrile]
> 5 | > 5 | – | N#Cc1ccc(Oc2cc(F)ccc2F)c(S(=O)(=O)NCCN2CCCCC2)c1 [Compound 64, 5-Cyano-2-(2,5-difluorophenoxy)-N-(2-(piperidin-1-yl)ethyl)benzenesulfonamide]
> 5 | – | – | CC1CN(S(=O)(=O)c2cc([N+](=O)[O-])ccc2Sc2cc(Cl)ccc2Cl)CC(C)N1 (stereo not shown) [Compound 103, 1-(2-(2,5-Dichlorophenylthio)-5-nitrophenylsulfonyl)-3,5-dimethylpiperazine]
> 5 | 25 to 100 | – | O=[N+]([O-])c1ccc(Oc2cc(Cl)ccc2Cl)c(S(=O)(=O)N2CCNCC2)c1 [Compound 147, 1-(2-(2,5-Dichlorophenoxy)-5-nitrophenylsulfonyl)piperazine]
– | 25 to 100 | – | CCN(CC)CCNS(=O)(=O)c1cc(C#N)ccc1Sc1cc(C)ccc1C [Compound 73, 5-Cyano-N-(2-(diethylamino)ethyl)-2-(2,5-dimethylphenylthio)-benzenesulfonamide]
– | ≤ 10 | – | Cc1ccc(C)c(Sc2ccc([N+](=O)[O-])cc2S(=O)(=O)N2CCC(N3CCCC3)CC2)c1 [Compound 75, 1-(2-(2,5-Dimethylphenylthio)-5-nitrophenylsulfonyl)-4-(pyrrolidin-1-yl)piperidine]
≤ 10 | – | – | CCN1CCN(S(=O)(=O)c2cc([N+](=O)[O-])ccc2Oc2cc(Cl)ccc2Cl)CC1 [Compound 100, 1-(2-(2,5-Dichlorophenoxy)-5-nitrophenylsulfonyl)-4-ethylpiperazine]
100 to 500 | – | – | N#Cc1ccc(Oc2cc(Cl)ccc2Cl)c(S(=O)(=O)NCCN2CCOCC2)c1 [Compound 95, 5-Cyano-2-(2,5-dichlorophenoxy)-N-(2-morpholinoethyl)benzenesulfonamide]
≤ 10 | ≤ 10 | – | N#Cc1ccc(Sc2cc(Cl)ccc2Cl)c(S(=O)(=O)N2CCNCC2)c1 [Compound 76, 4-(2,5-Dichlorophenylthio)-3-(piperazin-1-ylsulfonyl)benzonitrile]
> 5 | – | – | Cc1ccc(C)c(Oc2ccc([N+](=O)[O-])cc2S(=O)(=O)N2CCN(C(C)C)CC2)c1 [Compound 109, 1-(2-(2,5-Dimethylphenoxy)-5-nitrophenylsulfonyl)-4-isopropylpiperazine]
> 5 | – | – | Cc1ccc(C)c(Sc2ccc(C#N)cc2S(=O)(=O)N2CCNCC2)c1 [Compound 65, 4-(2,5-Dimethylphenylthio)-3-(piperazin-1-ylsulfonyl)benzonitrile]
> 5 | – | – | CC1CCN(S(=O)(=O)c2cc(C#N)ccc2Oc2cc(Cl)ccc2Cl)CC1 [Compound 87, 4-(2,5-Dichlorophenoxy)-3-(4-methylpiperidin-1-ylsulfonyl)benzonitrile]
